From ChEMBL document CHEMBL1128265, “Three-dimensional quantitative structure-activity relationship (QSAR) of HIV integrase inhibitors: a comparative molecular field analysis (CoMFA) study” (J Med Chem, 1995)

Tests used:
[1] = biological target: T1, Human immunodeficiency virus type 1 integrase (Human immunodeficiency virus 1, UniProt Q7ZJM1)
[2] = biological target: T1, Human immunodeficiency virus type 1 integrase; remark: listed apart in the source

T1 sequence (Q7ZJM1 whole entry): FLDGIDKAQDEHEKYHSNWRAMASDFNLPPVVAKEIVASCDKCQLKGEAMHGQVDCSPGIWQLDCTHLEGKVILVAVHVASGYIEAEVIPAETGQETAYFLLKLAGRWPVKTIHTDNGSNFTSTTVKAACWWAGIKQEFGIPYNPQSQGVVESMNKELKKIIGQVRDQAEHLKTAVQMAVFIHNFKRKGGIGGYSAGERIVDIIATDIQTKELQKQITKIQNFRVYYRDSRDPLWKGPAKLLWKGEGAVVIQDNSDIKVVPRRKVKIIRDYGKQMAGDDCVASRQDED

SMILES: C[C@@H]1O[C@@H](O)[C@H](O)[C@H](O)[C@H]1Oc1c(-c2cc(O)c(O)c(O)c2)oc2cc(O)cc(O)c2c1=O
- IC50 [1]: 39.6 µM
- IC50 [2]: 10.3 µM

SMILES: CC1OC(O)C(O)C(O)C1Oc1c(-c2ccc(O)c(O)c2)oc2cc(O)cc(O)c2c1=O (centres undefined)
- IC50 [1]: 60 µM
- IC50 [2]: 38.5 µM

SMILES: O=c1c(O)c(-c2ccc(O)c(O)c2)oc2c(O[C@@H]3O[C@@H](O)[C@@H](O)[C@H](O)[C@H]3O)c(O)cc(O)c12
- IC50 [1]: 69.7 µM
- IC50 [2]: 22.5 µM

SMILES: O=c1c(OC2COC(O)C(O)C2O)c(-c2ccc(O)c(O)c2)oc2cc(O)cc(O)c12 (centres undefined)
- IC50 [1]: 66.3 µM
- IC50 [2]: 25.1 µM

SMILES: COc1c(O)cc2oc(-c3ccc(O)c(O)c3)cc(=O)c2c1O [EUPAFOLIN]
- IC50 [1]: 94.3 µM
- IC50 [2]: 39.1 µM

SMILES: O=c1c(O)c(-c2ccc(O)c(O)c2)oc2cc(O)ccc12 [FISETIN]
- IC50 [1]: 28.4 µM
- IC50 [2]: 8.5 µM

SMILES: O=c1c(O)c(-c2ccc(O)cc2)oc2cc(O)cc(O)c12 [KAEMPFEROL]
- IC50 [1]: 97.8 µM
- IC50 [2]: 64.7 µM

SMILES: O=c1cc(-c2ccc(O)c(O)c2)oc2cc(O)cc(O)c12 [LUTEOLIN]
- IC50 [1]: 32.9 µM
- IC50 [2]: 25 µM

SMILES: O=c1c(O)c(-c2ccc(O)cc2O)oc2cc(O)cc(O)c12 [MORIN]
- IC50 [1]: 76.5 µM
- IC50 [2]: 31.7 µM

SMILES: O=c1c(O)c(-c2ccc(O)c(O)c2)oc2cc(O)c(O)c(O)c12 [QUERCETAGETIN]
- IC50 [1]: 0.8 µM
- IC50 [2]: 0.1 µM

SMILES: COc1cc(O)c2c(=O)c(O)c(-c3ccc(O)c(O)c3)oc2c1 [RHAMNETIN]
- IC50 [1]: 61.6 µM
- IC50 [2]: 28.7 µM

SMILES: O=c1c(O)c(-c2cc(O)c(O)c(O)c2)oc2cc(O)ccc12 [ROBINETIN]
- IC50 [1]: 5.9 µM
- IC50 [2]: 1.6 µM
